Results: publication PMC8445441, “Elucidating the mechanism by which synthetic helper peptides sensitize Pseudomonas aeruginosa to multiple antibiotics” (PLoS Pathogens, 2021)
Like-named read-outs stand apart in the source and are kept apart here.

Experiments:
P. aeruginosa AUMC-Pa-2 = details: strain AUMC-Pa-2; antibiotic + D-11 (MICb/MICbc 64/4)
Procedure, shortened: (§1)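 CLSI broth dilution; MHB; ~1 × 10^6 CFU/mL suspension mixed equal volume with drug; 37 °C for 18 h; visual read; triplicate. Broth sometimes supplemented with PG, PE, PC, CL, LPS, MgCl2, CaCl2 or PAβN.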

P. aeruginosa AUMC-Pa-1 = details: strain AUMC-Pa-1; antibiotic + D-11 (MICb/MICbc 128/4)
Procedure, shortened: as §1

P. aeruginosa ATCC27853 = assay: microbe, parasite or virus in culture; parameters: MICa: MIC of the antibiotic / MICac: MIC of the antibiotic in the combination: unit not given beside the values; details: strain ATCC27853; antibiotic + D-11 (MICb/MICbc 32/4)
Procedure, shortened: as §1

P. aeruginosa PA14 = assay: microbe, parasite or virus in culture; parameters: MICa: MIC of the antibiotic / MICac: MIC of the antibiotic in the combination: unit not given beside the values; details: strain PA14
Procedure, shortened: as §1

P. aeruginosa NR-31041 = assay: microbe, parasite or virus in culture; parameters: MICa: MIC of the antibiotic / MICac: MIC of the antibiotic in the combination: unit not given beside the values; details: strain NR-31041
Procedure, shortened: as §1

P. aeruginosa NR-31040 = assay: microbe, parasite or virus in culture; parameters: MICa: MIC of the antibiotic / MICac: MIC of the antibiotic in the combination: unit not given beside the values; details: strain NR-31040
Procedure, shortened: as §1

P. aeruginosa PAK = assay: microbe, parasite or virus in culture; parameters: MICa: MIC of the antibiotic / MICac: MIC of the antibiotic in the combination: unit not given beside the values; details: strain PAK
Procedure, shortened: as §1

P. aeruginosa PAO1 = assay: microbe, parasite or virus in culture; details: S3 Table, PAO1
Procedure, shortened: as §1

P. aeruginosa AUMC-Pa-5 = assay: microbe, parasite or virus in culture; details: strain AUMC-Pa-5
Procedure, shortened: as §1

P. aeruginosa AUMC-Pa-6 = assay: microbe, parasite or virus in culture; details: strain AUMC-Pa-6
Procedure, shortened: as §1

P. aeruginosa AUMC-Pa-3 = assay: microbe, parasite or virus in culture; details: strain AUMC-Pa-3
Procedure, shortened: as §1

P. aeruginosa AUMC-Pa-4 = assay: microbe, parasite or virus in culture; details: strain AUMC-Pa-4
Procedure, shortened: as §1

[1] = test system: clinical P. aeruginosa isolates; assay: microbe, parasite or virus in culture; details: Pseudomonas aeruginosa, 18 h, antibiotic alone
Procedure, shortened: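 MIC is the lowest drug concentration showing no visible growth after 18 h at 37 °C. Two-fold dilutions in MHB were combined with an equal volume of bacterial suspension (about 1 × 10^6 CFU/mL), following CLSI broth microdilution, in triplicate.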

P. aeruginosa HM-214 = details: strain HM-214; antibiotic + D-11 (MICb/MICbc 128/4)
Procedure, shortened: as §1

[2] = antibiotic + D-11 (MICb/MICbc 128/4)
[3] = antibiotic alone, unit not given
[4] = with D-11 at MICbc 4, unit not given
[5] = antibiotic + D-11 (MICb/MICbc 64/4)

MICa: MIC of the antibiotic (P. aeruginosa PA14; [3]): 128
MICac: MIC of the antibiotic in the combination (P. aeruginosa PA14; [4]): 4
MICa: MIC of the antibiotic (P. aeruginosa NR-31041; [3]): 128
MICac: MIC of the antibiotic in the combination (P. aeruginosa NR-31041; [4]): 4
MICa: MIC of the antibiotic (P. aeruginosa NR-31040; [3]): 128
MICac: MIC of the antibiotic in the combination (P. aeruginosa NR-31040; [4]): 4
MICa: MIC of the antibiotic (P. aeruginosa PAK; [3]): 128
MICac: MIC of the antibiotic in the combination (P. aeruginosa PAK; [4]): 4
MICac: the MIC for the antibiotic in the combination (P. aeruginosa PAO1; with 2 μM D-11): 4 µM
MICac: the MIC for the antibiotic in the combination (P. aeruginosa PAO1; with 4 μM D-11): 4 µM
MICa: the MIC of antibiotics (P. aeruginosa PAO1; antibiotic alone): 128 µM
MICa: MIC of the antibiotic (P. aeruginosa AUMC-Pa-5; [3]): 128
MICac: MIC of the antibiotic in the combination (P. aeruginosa AUMC-Pa-5; [4]): 16
MICa: MIC of the antibiotic (P. aeruginosa AUMC-Pa-6; [3]): 128
MICac: MIC of the antibiotic in the combination (P. aeruginosa AUMC-Pa-6; [4]): 4
MICa: MIC of the antibiotic (P. aeruginosa AUMC-Pa-3; [3]): 128
MICac: MIC of the antibiotic in the combination (P. aeruginosa AUMC-Pa-3; [4]): 4
MICa: MIC of the antibiotic (P. aeruginosa AUMC-Pa-4; [3]): 128
MICac: MIC of the antibiotic in the combination (P. aeruginosa AUMC-Pa-4; [4]): 4
MIC ([1]; read-out: Antibiotic sensibility (MIC) of clinical P. aeruginosa isolate AUMC-Pa-1, strain AUMC-Pa-1): > 128 µM
MIC ([1]; read-out: Antibiotic sensibility (MIC) of clinical P. aeruginosa isolate AUMC-Pa-2, strain AUMC-Pa-2): 128 µM
MIC ([1]; read-out: Antibiotic sensibility (MIC) of clinical P. aeruginosa isolate AUMC-Pa-3, strain AUMC-Pa-3): 128 µM
MIC ([1]; read-out: Antibiotic sensibility (MIC) of clinical P. aeruginosa isolate AUMC-Pa-4, strain AUMC-Pa-4): 128 µM
MIC ([1]; read-out: Antibiotic sensibility (MIC) of clinical P. aeruginosa isolate AUMC-Pa-5, strain AUMC-Pa-5): 128 µM
MIC ([1]; read-out: Antibiotic sensibility (MIC) of clinical P. aeruginosa isolate AUMC-Pa-6, strain AUMC-Pa-6): 128 µM
MIC ([1]; read-out: Antibiotic sensibility (MIC) of clinical P. aeruginosa isolate HM-214, strain HM-214): 128 µM
MIC ([1]; read-out: Antibiotic sensibility (MIC) of clinical P. aeruginosa isolate NR-31040, strain NR-31040): 128 µM
MIC ([1]; read-out: Antibiotic sensibility (MIC) of clinical P. aeruginosa isolate NR-31041, strain NR-31041): 128 µM
Compound: O=C(N[C@H](CO)[C@H](O)c1ccc([N+](=O)[O-])cc1)C(Cl)Cl [Chloramphenicol]
FICI (P. aeruginosa AUMC-Pa-2): 0.094
FICI (P. aeruginosa AUMC-Pa-1): 0.047
FICI (P. aeruginosa ATCC27853): 0.141
FICI (P. aeruginosa PA14; [2]): 0.063
FICI (P. aeruginosa NR-31041; [5]): 0.094
FICI (P. aeruginosa NR-31040; [2]): 0.063
FICI (P. aeruginosa PAK; [5]): 0.094
FICI (P. aeruginosa PAO1; antibiotic + 2 μM D-11): 0.094
FICI (P. aeruginosa PAO1; antibiotic + 4 μM D-11): 0.156
FICI (P. aeruginosa AUMC-Pa-5; [5]): 0.188
FICI (P. aeruginosa AUMC-Pa-6; [5]): 0.094
FICI (P. aeruginosa AUMC-Pa-3; [2]): 0.063
FICI (P. aeruginosa AUMC-Pa-4; [2]): 0.063
FICI (P. aeruginosa HM-214): 0.063
